# In BindingDB's records for doi:10.1021/jm801654y (Harvard Medical School, 2009):
# Target: T1, Histone deacetylase (Plasmodium falciparum (isolate 3D7), UniProt Q7K6A1)
# T1 sequence (Q7K6A1 whole entry): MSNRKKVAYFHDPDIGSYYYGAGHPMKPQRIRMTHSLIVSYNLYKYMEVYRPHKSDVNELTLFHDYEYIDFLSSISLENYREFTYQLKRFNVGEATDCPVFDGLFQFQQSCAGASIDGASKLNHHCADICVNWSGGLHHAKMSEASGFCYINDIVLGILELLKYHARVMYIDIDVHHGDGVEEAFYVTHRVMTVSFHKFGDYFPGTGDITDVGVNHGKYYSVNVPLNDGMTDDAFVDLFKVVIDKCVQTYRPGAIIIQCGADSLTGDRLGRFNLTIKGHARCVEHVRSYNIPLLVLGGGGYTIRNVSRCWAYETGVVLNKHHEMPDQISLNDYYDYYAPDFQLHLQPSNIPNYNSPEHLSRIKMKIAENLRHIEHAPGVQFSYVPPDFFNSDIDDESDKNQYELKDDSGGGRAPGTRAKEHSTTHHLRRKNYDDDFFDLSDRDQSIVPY
# Experiment: pfHDAC-1 Enzyme Assay
# Conditions: pH 7.5; 23 °C
# Description: Recombinant pfHDAC-1 was assayed with substrate in the presence of test compound. […] The reaction was allowed to proceed at room temperature for 15 hrs in sealed plates to minimize evaporation. […] Fluorescence was monitored after 1 hr at excitation and emission wavelengths of 360 and 460 nm, respectively. Kinetic constants were calculated by non-linear regression fitting of the data to the Michaelis-Menten equation. Kinetic and inhibition values reported are the mean of three determinations +/- standard deviation.
row,SMILES,IC50 [nM]
1,"O=C1CCc2c(ccc3ccccc23)O1 [1,2-Dihydro-3H-naphtho[2,1-b]pyran-3-one]",> 10000
2,"O=C(CCCCCC(=O)NN=Cc1cccc(O)c1)NO [benzylidenehydrazine derivative, 8]",59
3,"O=C(CCCCCCC(=O)NN=Cc1cc(O)ccc1O)NO [benzylidenehydrazine derivative, 9]",110
4,"O=C(CCCCCC(=O)NN=Cc1cc2c(cc1Br)OCO2)NO [benzylidenehydrazine derivative, 10]",20
5,"O=C(CCCCCCC(=O)NN=Cc1c(O)cc(O)cc1O)NO [benzylidenehydrazine derivative, 11]",43
6,"COc1ccc(Br)c(C=NNC(=O)CCCCCC(=O)NO)c1 [benzylidenehydrazine derivative, 12]",22
7,"CN(C)c1ccc(C=NNC(=O)CCCCCC(=O)NO)c(O)c1 [benzylidenehydrazine derivative, 13]",37
8,"O=C(CCCCCC(=O)NN=Cc1c(O)ccc2ccccc12)NO [benzylidenehydrazine derivative, 14]",41

# Now from value to compound:
row,IC50 [nM],SMILES
1,49,"O=C(CCCCCC(=O)NN=Cc1cc(O)ccc1Br)NO [benzylidenehydrazine derivative, 15]"
2,37,"O=C(CCCCCC(=O)NN=Cc1ccccc1Br)NO [benzylidenehydrazine derivative, 16]"
3,59,"COc1cc(C=NNC(=O)CCCCCC(=O)NO)c(Br)cc1O [benzylidenehydrazine derivative, 17]"
4,90,"O=C(CCCCCC(=O)NN=Cc1ccccc1Cl)NO [benzylidenehydrazine derivative, 18]"
5,15,"O=C(CCCCCC(=O)NN=Cc1ccc(-n2ccnc2)cc1)NO [benzylidenehydrazine derivative, 19]"
6,36,"O=C(CCCCCC(=O)NN=Cc1cccnc1Br)NO [benzylidenehydrazine derivative, 20]"
7,106,"O=C(CCCCC(=O)NN=Cc1ccc(O)cc1Br)NO [benzylidenehydrazine derivative, 21]"
8,89,"O=C(CCCCC(=O)NN=Cc1cc(O)ccc1Br)NO [benzylidenehydrazine derivative, 22]"
9,59,"COc1cc(C=NNC(=O)CCCCC(=O)NO)c(Br)cc1O [benzylidenehydrazine derivative, 23]"
10,45,"O=C(CCCCC(=O)NN=Cc1ccc(B(O)O)cc1)NO [benzylidenehydrazine derivative, 24]"
